Measurements taken from paper PMC3723632, “A Multi-targeted Drug Candidate with Dual Anti-HIV and Anti-HSV Activity” (PLoS Pathogens, 2013).
Where two headings read alike, the source gives them in different places.

What was measured:
[1] = molecular target: T1, HIV-1 RT (Human immunodeficiency virus type 1 group M subtype B, UniProt P03366); test: HIV-1 reverse transcriptase assay; format: biochemical; conditions: poly rU.dA primer/template
T1 construct: 4 µl of recombinant HIV-1 RT
Description: […] In the HSV DNA polymerase assays, the inhibitory effect of adefovir-pp or PMEA-DAPym-pp on herpesvirus DNA polymerase-catalyzed polymerization was also determined in the presence of radiolabeled [^3H]dGTP (1 mCi/ml; 2.8 µM), [^3H]dTTP (1 mCi/ml; 1 µM), or [^3H]dCTP (1 mCi/ml; 2.5 µM) as competing dNTP in the presence of 0.8 µl (5 mM) of the other dNTPs in the reaction mixture as described above. The reaction was started by the addition of 4 µl of recombinant HSV-1 DNA polymerase (kindly provided by M.W. Wathen, at that time at Pfizer, Kalamazoo, MI) or 4 µl of recombinant HIV-1 RT (in 20 mM Tris.HCl, pH 8.0; 1 mM DTT; 0.1 mM EDTA; 0.2 M NaCl; 40% glycerol), and the reaction mixture was incubated for 60 min (HSV-1 DNA polymerase) or 30 min (HIV-1 RT) at 37°C. Then, 1 ml of ice-cold 5% TCA in 0.02 M Na4P2O7.10 H2O was added to terminate the polymerisation reaction, after which the acid-insoluble precipitate (radiolabeled DNA) was captured onto Whatman glass fiber filters (type GF/C; GE Healthcare UK Limited, Buckinghamshire, UK) and further washed with 5% TCA and ethanol to remove free radiolabeled dNTP. Radioactivity was determined in a Perkin Elmer Tri-Carb 2810 TR liquid scintillation counter.

[2] = molecular target: T2, HSV DNA polymerase (Human herpesvirus 1, UniProt P04293); test: HSV DNA polymerase assay; format: biochemical
T2 construct: gift of M.W. Wathen (Pfizer, Kalamazoo, MI)
T2 sequence (P04293 whole entry): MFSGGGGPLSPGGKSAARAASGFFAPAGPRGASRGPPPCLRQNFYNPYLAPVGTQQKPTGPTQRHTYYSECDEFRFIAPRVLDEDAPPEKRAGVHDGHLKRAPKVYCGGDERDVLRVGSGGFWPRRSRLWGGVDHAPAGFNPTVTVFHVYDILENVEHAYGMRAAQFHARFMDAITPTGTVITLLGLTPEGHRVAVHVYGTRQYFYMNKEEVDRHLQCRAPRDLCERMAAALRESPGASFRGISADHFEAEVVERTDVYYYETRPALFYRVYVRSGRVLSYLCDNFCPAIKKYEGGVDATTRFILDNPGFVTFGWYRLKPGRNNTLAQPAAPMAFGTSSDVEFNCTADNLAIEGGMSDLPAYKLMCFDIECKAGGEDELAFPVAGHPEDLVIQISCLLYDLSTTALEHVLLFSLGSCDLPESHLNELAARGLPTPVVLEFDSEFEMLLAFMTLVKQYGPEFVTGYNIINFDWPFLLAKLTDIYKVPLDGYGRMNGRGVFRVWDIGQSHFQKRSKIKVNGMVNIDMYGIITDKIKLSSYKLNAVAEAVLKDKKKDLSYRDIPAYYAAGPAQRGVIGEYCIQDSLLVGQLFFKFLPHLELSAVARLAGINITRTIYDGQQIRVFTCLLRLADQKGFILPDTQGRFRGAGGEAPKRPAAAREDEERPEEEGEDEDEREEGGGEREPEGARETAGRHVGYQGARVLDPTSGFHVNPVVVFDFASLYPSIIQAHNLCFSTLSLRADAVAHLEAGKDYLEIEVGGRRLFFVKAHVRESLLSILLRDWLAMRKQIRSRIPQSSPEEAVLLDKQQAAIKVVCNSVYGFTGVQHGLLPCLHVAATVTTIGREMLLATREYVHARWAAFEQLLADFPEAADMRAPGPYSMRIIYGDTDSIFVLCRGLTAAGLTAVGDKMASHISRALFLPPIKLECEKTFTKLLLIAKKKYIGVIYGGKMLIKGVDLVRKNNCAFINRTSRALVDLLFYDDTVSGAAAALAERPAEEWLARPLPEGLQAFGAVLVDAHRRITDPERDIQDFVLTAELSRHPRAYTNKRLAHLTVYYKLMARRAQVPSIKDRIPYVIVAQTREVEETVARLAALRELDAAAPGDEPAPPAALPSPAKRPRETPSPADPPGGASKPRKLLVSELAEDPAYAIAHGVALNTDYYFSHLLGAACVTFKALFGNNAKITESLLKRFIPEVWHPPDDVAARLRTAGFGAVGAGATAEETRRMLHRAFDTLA
Description: The reaction mixture (40 µl) for the HSV-1 DNA polymerase and HIV-1 RT assays contained 4 µl of Premix (200 mM Tris.HCl, pH 7.5; 2 mM DTT; 30 mM MgCl2), 4 µl of BSA (5 mg/ml), 1.6 µl of activated calf thymus DNA (1.25 mg/ml), 0.8 µl of dCTP (5 mM), 0.8 µl of dTTP (5 mM), 0.8 µl of dGTP (5 mM), 2 µl of radiolabeled [^3H]dATP (1 mCi/ml) (3.2 µM), 18 µl of H2O, and 4 µl of adefovir-pp or PMEO-DAPym-pp at different concentrations (i.e., 200, 20, 2, and 0.2 µM). In the HSV DNA polymerase assays, the inhibitory effect of adefovir-pp or PMEA-DAPym-pp on herpesvirus DNA polymerase-catalyzed polymerization was also determined in the presence of radiolabeled [^3H]dGTP (1 mCi/ml; 2.8 µM), [^3H]dTTP (1 mCi/ml; 1 µM), or [^3H]dCTP (1 mCi/ml; 2.5 µM) as competing dNTP in the presence of 0.8 µl (5 mM) of the other dNTPs in the reaction mixture as described above. The reaction was started by the addition of 4 µl of recombinant HSV-1 DNA polymerase (kindly provided by M.W. Wathen, at that time at Pfizer, Kalamazoo, MI) or 4 µl of recombinant HIV-1 RT (in 20 mM Tris.HCl, pH 8.0; 1 mM DTT; 0.1 mM EDTA; 0.2 M NaCl; 40% glycerol), and the reaction mixture was incubated for 60 min (HSV-1 DNA polymerase) or 30 min (HIV-1 RT) at 37°C. Then, 1 ml of ice-cold 5% TCA in 0.02 M Na4P2O7.10 H2O was added to terminate the polymerisation reaction, after which the acid-insoluble precipitate (radiolabeled DNA) was captured onto Whatman glass fiber filters (type GF/C; GE Healthcare UK Limited, Buckinghamshire, UK) and further washed with 5% TCA and ethanol to remove free radiolabeled dNTP. Radioactivity was determined in a Perkin Elmer Tri-Carb 2810 TR liquid scintillation counter.

C[C@@H](Cn1cnc2c(N)ncnc21)OCP(=O)(O)OP(=O)(O)OP(=O)(O)O [Tenofovir-pp] was tested, and the IC50 ([1]; dATP (3.2 µM) as competing substrate) was 0.43 ± 0.21 µg/mL, the IC50 ([2]; [3H]dATP as competing substrate, gapped calf thymus DNA) was 0.48 ± 0.04 µg/mL and the IC50 ([2]; [3H]dCTP as competing substrate, gapped calf thymus DNA) was 32 ± 2.2 µg/mL. The IC50 ([2]; [3H]dGTP as competing substrate, gapped calf thymus DNA) was 8.9 ± 6.3 µg/mL, the IC50 ([2]; [3H]dTTP as competing substrate, gapped calf thymus DNA) was 11 ± 4.8 µg/mL and the “IC50, incorporation of other [3H]dNTPs” value ([2]; dCTP, dGTP, dTTP, range) was 8.9 to 32 µg/mL.

Nc1ncnc2c1ncn2CCOCP(=O)(O)OP(=O)(O)OP(=O)(O)O [Adefovir-pp] showed an IC50 ([1]; IC50, dATP (3.2 µM) as competing substrate) of 923 nM, an IC50 ([2]; [3H]dATP as competing substrate, gapped calf thymus DNA, read-out: IC50 (converted)) of 0.993 µM and an IC50 ([2]; [3H]dCTP as competing substrate, gapped calf thymus DNA, read-out: IC50 (converted)) of 3.92 µM. It also gave an IC50 ([2]; [3H]dGTP as competing substrate, gapped calf thymus DNA, read-out: IC50 (converted)) of 3.46 µM, an IC50 ([2]; [3H]dTTP as competing substrate, gapped calf thymus DNA, read-out: IC50 (converted)) of 4.85 µM and an IC50 ([2]; dCTP, dGTP, dTTP, range, read-out: IC50, incorporation of other [3H]dNTPs) of 3.46 to 4.85 µM.
